Among the data in PubChem BioAssay (NCI) are TGI and GI50 values, retold here.

Test systems include TK-10 renal; OVCAR-3 ovarian; MALME-3M melanoma; CCRF-CEM leukemia; SF-539 CNS; HCT-116 colon; SNB-19 CNS; RXF 393 renal; OVCAR-4 ovarian.
Experiment in all cases: inhibition of tumour cell growth, NCI panel, 48 h

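48-hour exposure; five concentrations; linearly interpolated endpoints. At the GI50, growth is halved. TGI denotes the concentration required for complete inhibition of growth.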 A value given as a limit tells only on which side of the number the result lay.

Regarding `COC(=O)/C(=N\NC(N)=O)C(C(=O)C=C(C)C)C(=O)C(=O)Nc1ccc(Cl)c(Cl)c1` (stereo not given), the TGI in the assay with TK-10 renal, with OVCAR-3 ovarian, in the assay on MALME-3M melanoma, in the assay on CCRF-CEM leukemia, in the assay on SF-539 CNS and in the assay with HCT-116 colon was over 100 µM in each case. Also, the TGI with SNB-19 CNS, with RXF 393 renal and in the assay with OVCAR-4 ovarian was over 100 µM each time.
On to `O=C1C2C3C=CC(C2C(=O)N1CN1CCSCC1)C1C2C(=O)N(CN4CCSCC4)C(=O)C2C31` (stereo not given), for which the TGI is over 100 µM in the assay on TK-10 renal; over 100 µM with OVCAR-3 ovarian; over 100 µM in the assay with MALME-3M melanoma; over 100 µM in the assay with CCRF-CEM leukemia; over 100 µM in the assay on SF-539 CNS; over 55.9 µM with HCT-116 colon. The TGI with SNB-19 CNS, with RXF 393 renal and in the assay with OVCAR-4 ovarian was over 100 µM throughout. The GI50 in the assay with CCRF-CEM leukemia was 35.1 µM.
Consider `[O-]c1c2c(nn1-c1ccc(Cl)cc1)c1ccccc1c[n+]2Cc1ccccc1`, for which the TGI in the assay on TK-10 renal, with OVCAR-3 ovarian, in the assay with MALME-3M melanoma, with CCRF-CEM leukemia, in the assay with SF-539 CNS and in the assay with HCT-116 colon was over 100 µM each time. For the same molecule, the results for the TGI in the assay on SNB-19 CNS, with RXF 393 renal and in the assay on OVCAR-4 ovarian were over 100 µM, 79.5 µM and over 100 µM, respectively.
Turning to `C1C[OH+]CC[OH+]CCNCC[OH+]CC[OH+]CCN1.Cl.[Cl-].[Pt+4]`, the GI50 with TK-10 renal is over 100 µM; in the assay with CCRF-CEM leukemia, over 100 µM; in the assay on SF-539 CNS, over 100 µM; in the assay on HCT-116 colon, over 100 µM; with SNB-19 CNS it was over 100 µM; with RXF 393 renal it was 1660 nM. Moreover, the TGI was over 100 µM in the assay with TK-10 renal; over 100 µM in the assay with CCRF-CEM leukemia; over 100 µM with SF-539 CNS; over 100 µM in the assay on HCT-116 colon; over 100 µM in the assay with SNB-19 CNS; 4.13 µM in the assay on RXF 393 renal.
Consider `CCN(CC)CCn1c2ccccc2c(=O)c2c(OC)ccc(OC)c21`, for which the TGI in the assay with OVCAR-3 ovarian, with MALME-3M melanoma, in the assay on CCRF-CEM leukemia, in the assay on SF-539 CNS, in the assay on HCT-116 colon and in the assay with SNB-19 CNS was over 100 µM throughout. Further, the TGI in the assay on RXF 393 renal was 81.5 µM; in the assay with OVCAR-4 ovarian it was over 100 µM.
For `COc1cc(/C=C2/C(=O)N(C(=O)OCc3ccccc3)C(Cc3cc(OC)c(OC)c(C)c3OC)C(=O)N2Cc2ccccc2)c(OC)c(C)c1OC` (stereo not given), the TGI with TK-10 renal, in the assay with OVCAR-3 ovarian, in the assay on MALME-3M melanoma, in the assay with SF-539 CNS, in the assay with HCT-116 colon and in the assay on SNB-19 CNS was over 100 µM in each case. The TGI in the assay on RXF 393 renal and in the assay with OVCAR-4 ovarian was over 100 µM each time.
For `CCOCc1cc(=O)c2c(OC)cc3c(c2o1)CCC(C)(C)O3`, the TGI in the assay on TK-10 renal, with OVCAR-3 ovarian, with MALME-3M melanoma, in the assay with CCRF-CEM leukemia, in the assay on SF-539 CNS and in the assay on HCT-116 colon was over 100 µM throughout. Also, the TGI with RXF 393 renal and in the assay with OVCAR-4 ovarian was over 100 µM in each case.
As for `Cc1ccccc1C1CC(c2ccccc2)=NO1` (stereo not given), the TGI with TK-10 renal, in the assay with OVCAR-3 ovarian, in the assay with MALME-3M melanoma, with CCRF-CEM leukemia, in the assay with SF-539 CNS and in the assay with HCT-116 colon was over 100 µM in each case. The TGI in the assay on SNB-19 CNS and in the assay with OVCAR-4 ovarian was over 100 µM each time.
Regarding `CCOC(=O)c1cccnc1C(OC(C)=O)OC(C)=O`, the TGI in the assay on TK-10 renal, in the assay on OVCAR-3 ovarian, in the assay on MALME-3M melanoma, with CCRF-CEM leukemia, with SF-539 CNS and with HCT-116 colon was over 100 µM in each case. For the same molecule, the TGI in the assay on SNB-19 CNS, in the assay with RXF 393 renal and in the assay on OVCAR-4 ovarian was over 100 µM in each case.
Take `O=c1cc(-c2ccccc2)[nH]c2cc(Cl)ccc12`: the TGI is over 100 µM in the assay on TK-10 renal; over 100 µM in the assay on MALME-3M melanoma; 11.4 µM with CCRF-CEM leukemia; 1.99 µM in the assay on SF-539 CNS; over 100 µM in the assay on HCT-116 colon; 6.44 µM in the assay on SNB-19 CNS. Besides, the TGI in the assay on RXF 393 renal was 1.08 µM; in the assay on OVCAR-4 ovarian, over 100 µM.
Take `CCOC(=O)C(C(O)c1ccc([N+](=O)[O-])cc1)P(=O)(OCC)OCC` (stereo not given): the TGI in the assay on TK-10 renal, in the assay with OVCAR-3 ovarian, in the assay with MALME-3M melanoma, in the assay on CCRF-CEM leukemia, with SF-539 CNS and in the assay on HCT-116 colon was over 100 µM throughout. Also, the TGI in the assay on SNB-19 CNS, with RXF 393 renal and in the assay on OVCAR-4 ovarian was over 100 µM in each case.
For the molecule `CC1C2CC=CC(=O)[C@@]2(C)CCC12OCCO2` (stereo not given in full), the TGI in the assay on TK-10 renal, with OVCAR-3 ovarian, with MALME-3M melanoma, in the assay on CCRF-CEM leukemia, in the assay with SF-539 CNS and in the assay with HCT-116 colon was over 100 µM each time. Moreover, the TGI in the assay on SNB-19 CNS, in the assay on RXF 393 renal and with OVCAR-4 ovarian was over 100 µM each time.
Turning to `CCOC1CC2OC(=O)C1C=C2C(=O)OC` (stereo not given), the TGI is 84.1 µM in the assay on TK-10 renal; 75.1 µM in the assay on OVCAR-3 ovarian; 38.5 µM with MALME-3M melanoma; 56.6 µM in the assay on CCRF-CEM leukemia; 68.4 µM in the assay on SF-539 CNS; over 100 µM in the assay on SNB-19 CNS. For the same molecule, the TGI in the assay with OVCAR-4 ovarian amounted to 57.4 µM.
For the molecule `COC(=O)C(/C(=N\NC(N)=S)C(=O)Nc1ccccc1[N+](=O)[O-])c1cnc2ccccc2n1` (stereo not given), the TGI in the assay with TK-10 renal, in the assay with MALME-3M melanoma, in the assay with CCRF-CEM leukemia, in the assay with SF-539 CNS, in the assay on HCT-116 colon and with SNB-19 CNS was over 100 µM each time. Further, the TGI with RXF 393 renal and in the assay with OVCAR-4 ovarian was over 100 µM throughout.
Take `C=CCN(N=O)C(=O)NCCCCC(NC(C)=O)C(=O)NCc1ccccc1` (stereo not given): the TGI in the assay with TK-10 renal, in the assay on OVCAR-3 ovarian, in the assay on MALME-3M melanoma, in the assay on CCRF-CEM leukemia, with SF-539 CNS and with SNB-19 CNS was over 100 µM each time. Also, the TGI with RXF 393 renal and in the assay with OVCAR-4 ovarian was over 100 µM each time.
